Entries after “also recorded” stand apart in the source; their conditions may differ. Marks after values point to notes of the source that are not given here.
Experiments:
[1] = test system: Mia PACA-2; test: Pancreatic cancer growth assay in nude mouse model; assay type: in vivo
Description: To determine the effect of a polyphenolic compound on pancreatic cancer cell growth, the following assay using a nude mouse model was conducted. Specifically, the effect of quercetin was tested in a nude mouse model of pancreatic cancer using the highly malignant pancreatic cancer cell line, Mia PACA-2.
Tumor induction in nude mice was performed as described by Hotz HC, et al. (2001) Pancreas 22:113-121, which is herein incorporated by reference. For subcutaneous tumor formation, 1×10^7 Mia PACA-2 tumor cells were subcutaneously injected in the medio-dorsal region of a nude mouse. After 4 weeks a small tumor fragment, about 1 mm in diameter, was removed from the subcutaneous tumor and transplanted into the pancreatic tail of mice of two study groups. Ten days after tumor transplantation, treatment with or without quercetin was initiated. The treated animals received daily intraperitoneal injections of 1.3 mg quercetin dissolved in DMSO; the control group received DMSO only by intraperitoneal injection. The animals were sacrificed once clinical tumor signs including severe cachexia ascites with abdominal distension or heavy tumor burden, larger than 1.5 cm, became apparent. Tumor volume was calculated as described by Hotz H C, et al. (2001) as 0.5×length×width×depth. Metastatic tumor spread was determined macroscopically at autopsy in all thoracic, abdominal, retroperitoneal and pelvic organs. All macroscopic suspicious lesions were further confirmed as tumor dissemination by microscopic analysis. Each value in the metastatic score represented a different organ of metastatic tumor spread.

[2] = test system: Mia PACA-2 cells; test: Oligonucleosomal DNA fragmentation by cell death ELISA; assay type: cell-based, human; conditions: Mia PACA-2, 72 hours, with serum; DPI 15 μM, Tiron 10 mM, genistein 100 μM, trans-resveratrol 100 or 50 μM
Description: Mia PACA-2 cells were cultured for 72 hours in the presence of serum with or without 15 μM DPI, 10 mM Tiron, 100 μM genistein, 100 μM or 50 μM trans-resveratrol, or a combination thereof. Oligonucleosomal DNA fragmentation was measured in cell lysates by cell death ELISA.
Annexin staining was conducted as described above. Cells were collected, washed with PBS, and centrifuged for 10 min at 200×g. DNA fragmentation was determined using Cell Death Detection ELISA Plus kit (Roche Molecular Biochemicals).
To determine the role of caspases in the effects of combinations of agents on apoptosis, the effects of caspase-3 activity (DEVDase activity) as well as the effect of the broad spectrum caspase inhibitor, Z-VAD, on apoptosis was measured. Specifically, Mia PACA-2 cells were cultured for 72 hours in the presence of serum with or without 100 μM Z-VAD, 15 μM DPI, 100 μM trans-resveratrol, 100 μM genistein, a combination of trans-resveratrol and DPI, and a combination of genistein and DPI. DEVDase activity was measured in whole cell lysates with a fluorimetric assay. DNA fragmentation was measured in cell lysates by cell death ELISA.
In particular, Mia PACA-2 cells were cultured for 72 hours in the presence of serum with or without 50 μM trans-resveratrol (RS), 15 μM DPI, a combination of DPI and trans-resveratrol (RS+DPI), 10 μM MG-132 alone and in combination with RS, DPI, and RS+DPI. Internucleosomal DNA fragmentation was measured in cell lysates by cell death ELISA.

[3] = test system: Akt/PKB; test: Akt/PKB phosphorylation (Western blot); assay type: cell-based, human; conditions: Mia PACA-2, 72 hours, with serum; genistein 100 μM, LY294002 50 μM
Description: To determine whether phosphatidylinositol 3-kinase (PI 3-kinase) and Akt/PKB mediate the effects of serum on NF-κB activation and that the effects of polyphenolic compounds on NF-κB activation are due to an ability to inhibit PI 3-kinase, the following assays were conducted. Specifically, to determine the effects of serum, LY294002, a PI 3-kinase inhibitor, and genistein on Akt/PKB phosphorylation, Mia PACA-2 cells were cultured for 72 hours in the absence or presence of serum with or without 100 μM genistein (GN) or 50 μM LY294002. Western blots were performed on whole cell lysates as described above except that specific antibodies against phosphorylated and total Akt/PKB were used (Akt/PKB is Anti-pS473 AktpAB from Promega, Madison Wis. and total Akt is Akt ½ from Santa Cruz, Santa Cruz, Calif.). The membranes were then stripped and re-probed with an antibody against total Akt .

[4] = test system: Mia PACA-2 cells; test: Annexin staining (flow cytometry); assay type: cell-based, human; conditions: Mia PACA-2, 72 hours, 0-100 μM, no serum
Description: BSp73AS cells are derived from a rat pancreatic carcinoma and both Mia PACA-2 and BSp73AS cells have mutated p53 and express K-ras. Human pancreatic carcinoma cell line Mia PACA-2 and rat pancreatic carcinoma BSp73AS were cultured in Dulbecco's Modified Eagle's Medium supplemented with 10% heat inactivated FBS, penicillin G (100 U/ml) and streptomycin ([…]) in a humidified atmosphere comprising 5% (v/v) CO2. When cells were 90% confluent they were detached, washed with alternating centrifugation and resuspension, plated and incubated in the same media without FBS and with the indicated concentrations of polyphenolic compounds or vehicle for up to 96 hours. Oligonucleotide DNA fragmentation, annexin staining, and PARP proteolysis assays were conducted as follows:
Mia PACA-2 cells were cultured for 72 hours in the presence of 0, 12, 24, 50, and 100 μM rutin, quercetin, or trans-resveratrol. About 1×10^6 cells as determined with a hemocytometer were analyzed for annexin-V binding using an Annexin V-FLUOS Staining Kit (Boehringer Mannheim, Germany). […] Cells were analyzed on a FACScan flow cytometer (Becton Dickinson Immunocytometry System, San Jose, Calif.) equipped with a […] air-cooled 488 nm argon-ion laser. […]

[5] = test system: caspase-3; test: Caspase-3 (DEVDase) activity, fluorogenic assay with DEVD-AMC; assay type: cell-based, human; conditions: Mia PACA-2, up to 24 hours, 100 μM, no serum (FIG. 7B)
Description: To determine whether a polyphenolic compound activates caspase-3 activity in a time-dependent manner, the following assay was conducted. BSp73AS cells were cultured for 0, 1, 3, and 6 hours and Mia PACA-2 cells were cultured in the absence of serum or growth factors for 0, 1, 4, 6, and 24 hours in the presence of 100 μM or quercetin, trans-resveratrol, rutin, or control. Caspase-3 activity was measured in cell lysates with a fluorogenic assay using DEVD-AMC as a substrate. The results were normalized to the DEVDase activity in untreated cells.
A fluorimetric assay for caspase-3 activity was conducted. […] Cytosolic protein extracts (supernatants) were collected, protein concentrations were determined and the extracts were aliquoted and stored at −80° C. […] The reaction was started by addition of caspase-3 substrate, the readings were taken at 0, 60, 90, and 120 minutes. Fluorescence was calibrated using a standard curve for AMC. The data were expressed as mol AMC/mg protein/min.
Mia PACA-2 cells were cultured in the absence of serum or growth factors for 24 hours in the presence or absence of quercetin (100 μM), trans-resveratrol (100 μM), Z-VAD FMK (50 μM), cyclosporin A (5 μM) and/or aristolochic acid (50 μM). […] The reaction was started by addition of caspase-3 substrate, the readings were taken at 0, 60, 90, and 120 minutes. Fluorescence was calibrated using a standard curve for AMC. […] The data were expressed as mol AMC/mg protein/min. […]

[6] = nude mice with Mia PACA-2 tumor in pancreatic tail, daily i.p. 1.3 mg quercetin, means ± SE, n=8

Row | Structure (SMILES) | growth of pancreatic cancer in a nude mouse model [1] | oligonucleosomal DNA fragmentation (apoptosis) [2] | serum-induced Akt/PKB phosphorylation/activation [3] | annexin staining (apoptosis) [4] | Number of metastatic sites (organs with metastatic lesions) [1, 6] | Tumor volume, cm^3 [1, 6] | Number of metastatic sites (organs with metastatic lesions) ([1]; nude mice with Mia PACA-2 tumor in pancreatic tail, daily i.p. 1.3 mg quercetin, means ± SE, n=8, listed as Quercetin) | Survival ([1]; nude mice with Mia PACA-2 tumor transplanted into pancreatic tail, daily intraperitoneal 1.3 mg quercetin in DMSO, means ± SE, n=8, days after transplantation until animal appeared ill from abdominal distension) [days] | caspase-3 activation [5]
1 | O=c1c(-c2ccc(O)cc2)coc2cc(O)cc(O)c12 [genistein] | inhibition of growth | either no or small effects | attenuated serum-induced Akt phosphorylation/activation |  |  |  |  |  | 
2 | O=c1c(O)c(-c2ccc(O)c(O)c2)oc2cc(O)cc(O)c12 [quercetin] | inhibition of growth |  |  | increase annexin staining; also recorded: more potent in causing apoptosis than trans-resveratrol | 0.6 | 1.56 ± 0.27* cm^3 | 0.62 ± 0.26 | 75.00 ± 2.50 | caused caspase-3 activation
3 | Oc1ccc(/C=C/c2cc(O)cc(O)c2)cc1 [trans-resveratrol] |  | either no or small effects |  | increase annexin staining |  |  |  |  | caused caspase-3 activation

Reference: US6953786B2, “Compositions comprising plant-derived polyphenolic compounds and inhibitors of reactive oxygen species and methods of using thereof” (The Regents of the University of California, priority 2002, dated 2005)
